The values below come from PubChem BioAssay AID342 (DTP/NCI, 2004).

What is called T/C is the result in the treated group divided by that in the control group, in per cent.

Values joined by “and” are separate entries in the source; they are usually repeats but may differ in a detail not shown here. Identical values can stand only once.

The assay deals with Swiss mice, Sarcoma 180 sc, mean tumor weight T/C. Description: NCI In Vivo Anticancer Drug Screen. Data for tumor model Sarcoma 180 (subcutaneous) in Swiss mice. The settings on record: endpoint: mean tumor weight, higher = larger tumour. A digest of the protocol: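 Antitumor activity is assessed in mice with transplantable tumors. Treated (T) and vehicle control (C) groups are compared on survival or tumor size.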

[1] abbreviates: dose: 6.0 mg/kg/injection, schedule: Q01DX007 (ip), vehicle: other.

`CS(=O)(=O)OCCCCOS(C)(=O)=O`: the T/C was 108 % of control (dose: 4.12 mg/kg/injection, schedule: Q#A X014 (ip), vehicle: carboxymethylcellulose (CMC)); 91 % of control (dose: 6.25 mg/kg/injection, schedule: Q#A X014 (ip), vehicle: carboxymethylcellulose (CMC)); 119 % of control (dose: 8.25 mg/kg/injection, schedule: Q#A X014 (ip), vehicle: carboxymethylcellulose (CMC)); 87 % of control (dose: 9.87 mg/kg/injection, schedule: Q01DX007 (ip), vehicle: carboxymethylcellulose (CMC)); 103 % of control (dose: 12.5 mg/kg/injection, schedule: Q#A X014 (ip), vehicle: carboxymethylcellulose (CMC)); 85 % of control (dose: 16.5 mg/kg/injection, schedule: Q#A X014 (ip), vehicle: carboxymethylcellulose (CMC)). Besides, the T/C (dose: 19.75 mg/kg/injection, schedule: Q01DX007 (ip), vehicle: carboxymethylcellulose (CMC)) is 65 % of control; the T/C (dose: 25.0 mg/kg/injection, schedule: Q#A X014 (ip), vehicle: carboxymethylcellulose (CMC)) was 96 % of control; the T/C (dose: 33.0 mg/kg/injection, schedule: Q#A X014 (ip), vehicle: carboxymethylcellulose (CMC)) is 66 % of control; the T/C (dose: 39.5 mg/kg/injection, schedule: Q01DX007 (ip), vehicle: carboxymethylcellulose (CMC)) was 60 % of control.
On to `ClCc1c2ccccc2c(CCl)c2ccccc12`, for which the T/C (dose: 0.25 mg/kg/injection, schedule: Q01DX007 (ip), vehicle: methylcellulose (MC)) was 95 % of control; the T/C (dose: 0.5 mg/kg/injection, schedule: Q01DX007 (ip), vehicle: methylcellulose (MC)) is 89 % of control; the T/C (dose: 1.0 mg/kg/injection, schedule: Q01DX007 (ip), vehicle: methylcellulose (MC)) was 122 % of control; the T/C (dose: 1.5 mg/kg/injection, schedule: Q01DX007 (ip), vehicle: methylcellulose (MC)) was 72 % of control; the T/C (dose: 1.8 mg/kg/injection, schedule: Q01DX007 (ip), vehicle: other) is 22 % of control; the T/C (dose: 1.8 mg/kg/injection, schedule: Q01DX007 (ip), vehicle: saline) is 113 % of control. For the same molecule, the T/C runs as follows: (dose: 2.0 mg/kg/injection, schedule: Q01DX007 (ip), vehicle: methylcellulose (MC)) 72 % of control; (dose: 2.6 mg/kg/injection, schedule: Q01DX007 (ip), vehicle: other) 23 % of control; (dose: 2.6 mg/kg/injection, schedule: Q01DX007 (ip), vehicle: saline) 102 % of control; (dose: 4.0 mg/kg/injection, schedule: Q01DX007 (ip), vehicle: other) 26 % of control; under setting [1], 17 % of control; (dose: 9.0 mg/kg/injection, schedule: Q01DX007 (ip), vehicle: saline) 40 % of control.
As for `C[C@]12CCC(=O)C=C1[C@@H](F)C[C@@H]1[C@@H]2[C@@H](O)C[C@@]2(C)[C@H]1CC[C@]2(O)C(=O)CO`, the T/C reads like this: (dose: 37.0 mg/kg/injection, schedule: Q01DX007 (sc), vehicle: steriod suspending solution) 76 % of control; (dose: 56.0 mg/kg/injection, schedule: Q01DX007 (sc), vehicle: steriod suspending solution) 89 % of control; (dose: 125.0 mg/kg/injection, schedule: Q01DX007 (sc), vehicle: steriod suspending solution) 97 % of control; (dose: 126.0 mg/kg/injection, schedule: Q01DX007 (sc), vehicle: steriod suspending solution) 33 % of control; (dose: 188.0 mg/kg/injection, schedule: Q01DX007 (sc), vehicle: steriod suspending solution) 29 % of control.
Regarding `O=C(Nc1ccc2cc(S(=O)(=O)O)ccc2c1)c1ccc(N=Nc2c(S(=O)(=O)O)cc3cc(S(=O)(=O)O)cc(NC(=O)c4ccccc4)c3c2O)cc1`, the T/C (dose: 41.5 mg/kg/injection, schedule: Q#A X014 (ip), vehicle: methylcellulose (MC)) was 52 % of control and 61 % of control and 77 % of control; the T/C (dose: 93.5 mg/kg/injection, schedule: Q#A X014 (ip), vehicle: methylcellulose (MC)) was 44 % of control and 63 % of control.
Consider `Cc1cc(C)c(N)c(C)c1N`, for which, for the setting “dose: 187.5 mg/kg/injection, schedule: Q#A X014 (ip), vehicle: methylcellulose (MC)”, the T/C is 48 % of control.
For `CSc1ncnc2c1ncn2C1OC(CO)C(O)C1O` (stereo not given), the T/C is 72 % of control (dose: 12.5 mg/kg/injection, schedule: Q01DX007 (ip), vehicle: saline); 88 % of control (dose: 15.0 mg/kg/injection, schedule: Q01DX007 (ip), vehicle: saline); 94 % of control (dose: 17.5 mg/kg/injection, schedule: Q01DX007 (ip), vehicle: saline); 73 % of control (dose: 20.0 mg/kg/injection, schedule: Q01DX007 (ip), vehicle: saline).
In the case of `Nc1nc(SN=Nc2ccc(S(=O)(=O)O)cc2)c2[nH]cnc2n1`, the T/C reads like this: (dose: 1.75 mg/kg/injection, schedule: Q01DX007 (ip), vehicle: other) 104 % of control; (dose: 3.5 mg/kg/injection, schedule: Q01DX007 (ip), vehicle: other) 80 % of control; under setting [1], 65 % of control; (dose: 7.0 mg/kg/injection, schedule: Q01DX007 (ip), vehicle: other) 46 % of control; (dose: 9.0 mg/kg/injection, schedule: Q01DX007 (ip), vehicle: other) 57 % of control; (dose: 14.0 mg/kg/injection, schedule: Q01DX007 (ip), vehicle: other) 18 % of control and 27 % of control and 33 % of control. In addition, under “dose: 21.0 mg/kg/injection, schedule: Q01DX007 (ip), vehicle: other”, the T/C was 1 % of control and 14 % of control.
For `C[C@]12CCC(=O)C=C1CC[C@@H]1[C@@H]2[C@@H](O)C[C@@]2(C)[C@H]1CC[C@]2(O)C(=O)CF`, the T/C is 55 % of control (dose: 25.0 mg/kg/injection, schedule: Q#A X014 (sc), vehicle: steriod suspending solution); 43 % of control (dose: 125.0 mg/kg/injection, schedule: Q#A X014 (sc), vehicle: steriod suspending solution); 36 % of control (dose: 148.0 mg/kg/injection, schedule: Q01DX007 (sc), vehicle: steriod suspending solution); 26 % of control (dose: 222.0 mg/kg/injection, schedule: Q01DX007 (sc), vehicle: saline); 19 % of control (dose: 222.0 mg/kg/injection, schedule: Q01DX007 (sc), vehicle: steriod suspending solution); 43 % of control (dose: 250.0 mg/kg/injection, schedule: Q#A X014 (sc), vehicle: steriod suspending solution). In addition, the T/C is, setting by setting: (dose: 333.0 mg/kg/injection, schedule: Q01DX007 (sc), vehicle: saline) 25 % of control; (dose: 500.0 mg/kg/injection, schedule: Q01DX007 (sc), vehicle: saline) 21 % of control; (dose: 750.0 mg/kg/injection, schedule: Q01DX007 (sc), vehicle: saline) 20 % of control; (dose: 1125.0 mg/kg/injection, schedule: Q01DX007 (sc), vehicle: steriod suspending solution) 13 % of control.
In the case of `CCOC(N)=O`, the T/C (dose: 62.5 mg/kg/injection, schedule: Q#A X014 (ip), vehicle: carboxymethylcellulose (CMC)) is 103 % of control; the T/C (dose: 85.38 mg/kg/injection, schedule: Q01DX007 (ip), vehicle: carboxymethylcellulose (CMC)) was 56 % of control; the T/C (dose: 112.5 mg/kg/injection, schedule: Q01DX007 (ip), vehicle: carboxymethylcellulose (CMC)) was 53 % of control; the T/C (dose: 125.0 mg/kg/injection, schedule: Q#A X014 (ip), vehicle: carboxymethylcellulose (CMC)) is 85 % of control; the T/C (dose: 170.75 mg/kg/injection, schedule: Q01DX007 (ip), vehicle: carboxymethylcellulose (CMC)) is 64 % of control; the T/C (dose: 225.0 mg/kg/injection, schedule: Q01DX007 (ip), vehicle: carboxymethylcellulose (CMC)) was 42 % of control. In addition, the T/C is 113 % of control (dose: 225.0 mg/kg/injection, schedule: Q#A X014 (ip), vehicle: carboxymethylcellulose (CMC)); 77 % of control (dose: 250.0 mg/kg/injection, schedule: Q#A X014 (ip), vehicle: carboxymethylcellulose (CMC)); 55 % of control (dose: 273.2 mg/kg/injection, schedule: Q01DX007 (ip), vehicle: carboxymethylcellulose (CMC)); 73 % of control (dose: 300.0 mg/kg/injection, schedule: Q#A X014 (ip), vehicle: carboxymethylcellulose (CMC)); 67 % of control (dose: 316.0 mg/kg/injection, schedule: Q01DX007 (ip), vehicle: carboxymethylcellulose (CMC)); 37 % of control and 46 % of control (dose: 341.5 mg/kg/injection, schedule: Q01DX007 (ip), vehicle: carboxymethylcellulose (CMC)). The T/C reads like this: (dose: 395.0 mg/kg/injection, schedule: Q01DX007 (ip), vehicle: carboxymethylcellulose (CMC)) 54 % of control; (dose: 450.0 mg/kg/injection, schedule: Q01DX007 (ip), vehicle: carboxymethylcellulose (CMC)) 53 % of control; (dose: 455.33 mg/kg/injection, schedule: Q01DX007 (ip), vehicle: carboxymethylcellulose (CMC)) 62 % of control; (dose: 500.0 mg/kg/injection, schedule: Q#A X014 (ip), vehicle: carboxymethylcellulose (CMC)) 24 % of control; (dose: 526.6 mg/kg/injection, schedule: Q01DX007 (ip), vehicle: carboxymethylcellulose (CMC)) 40 % of control; (dose: 683.0 mg/kg/injection, schedule: Q01DX007 (ip), vehicle: carboxymethylcellulose (CMC)) 21 % of control and 44 % of control. Besides, the T/C (dose: 900.0 mg/kg/injection, schedule: Q01DX007 (ip), vehicle: carboxymethylcellulose (CMC)) was 23 % of control.
